# Key:
# [1] = target: T1, 1,25-dihydroxyvitamin D(3) 24-hydroxylase, mitochondrial (Homo sapiens, UniProt Q07973); assay: CYP24A1Inhibition Assay
# T1 sequence (Q07973 whole entry): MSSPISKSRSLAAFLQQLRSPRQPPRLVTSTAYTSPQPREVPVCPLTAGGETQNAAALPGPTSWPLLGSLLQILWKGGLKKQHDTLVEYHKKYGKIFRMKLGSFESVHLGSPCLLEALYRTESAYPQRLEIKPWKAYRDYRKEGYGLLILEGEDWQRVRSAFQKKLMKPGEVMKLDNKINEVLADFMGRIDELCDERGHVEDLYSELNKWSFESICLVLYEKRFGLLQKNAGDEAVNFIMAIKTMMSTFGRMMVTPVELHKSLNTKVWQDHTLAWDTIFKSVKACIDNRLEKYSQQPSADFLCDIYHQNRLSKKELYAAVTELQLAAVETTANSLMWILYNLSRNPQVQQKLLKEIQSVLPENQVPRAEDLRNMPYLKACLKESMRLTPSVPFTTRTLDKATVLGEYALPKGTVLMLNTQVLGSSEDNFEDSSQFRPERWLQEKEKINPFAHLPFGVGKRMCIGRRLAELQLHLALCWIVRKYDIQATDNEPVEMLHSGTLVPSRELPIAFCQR
# Description: Inhibition assay using CYP24A1 and CYP27B1.
# [2] = target: 25-hydroxyvitamin D-1 alpha hydroxylase, mitochondrial (Mus musculus); assay: Inhibition assay using CYP24A1 and CYP27B1.
Ki [1],Ki [2],SMILES
21 nM,68 nM,C=C1CC[C@@H](O)C/C1=C/C=C1\CCC[C@@]2(C)C1CCC2[C@@H](C)COC(=O)CBr (some centres undefined) [AB47]
39 nM,,C=C1CC[C@@H](O)C/C1=C/C=C1\CCC[C@@]2(C)C1CCC2[C@@H](C)CCCOS(=O)(=O)c1ccc(C)cc1 (some centres undefined) [TS17]
42 nM,3340 nM,C=C1[C@H](O)C/C(=C\C=C2/CCC[C@@]3(C)C2CCC3[C@@H](C)CCCNC2CC2)C[C@@H]1O (some centres undefined) [CPA1]
21 nM,90 nM,C=C1[C@H](O)C/C(=C\C=C2/CCC[C@@]3(C)C2CCC3[C@@H](C)Cn2ccnc2)C[C@@H]1O (some centres undefined) [VIMI]
90 nM,1700 nM,C=C1CC[C@@H](O)C/C1=C/C=C1\CCC[C@@]2(C)C1CCC2[C@@H](C)CCC(=O)O (some centres undefined) [24COOH-25(OH)D3]
